In publication PMC12072186, “A Novel Small Molecule Enhances Stable Dopamine Delivery to the Brain in Models of Parkinson’s Disease” (International Journal of Molecular Sciences, 2025):
Read-outs that look alike come from different tables or passages of the source.

How the values were obtained:
[1] = system: MPTP-treated C57BL/6 mice; experiment: Rotarod test in MPTP-treated mice; type: in vivo, mouse; settings: MPTP 25 mg/kg i.p. day 1–5; treatment day 1–13; vs MPTP vehicle control
Method: (§1) MPTP was injected to male C57BL/6 mice for 5 consecutive days (Figure 4A) to destroy DA neurons, and then the mice were treated with Pegasus alone or Pegasus + Benserazide compared to L-dopa alone or L-Dopa + Benserazide.
(§2) From day 1 to day 5, MPTP was administered to all the groups except Naive at a dose of 25 mg/kg, i.p., QD. Treatment with Pegasus alone (50 mg/kg, i.p., BID), a combination of Pegasus 50 mg/kg, BID + Benserazide 10 mg/kg, QD, or a combination of L-Dopa 10 mg/kg, QD + Benserazide 10 mg/kg, QD or standalone L-Dopa 10 mg/kg, QD, started on day 1 and continued until day 13. On day 13, after the first dose of Pegasus, 4 animals/time point from each group were sacrificed at 0.5, 1, 3, 6, and 12 h, and the blood and brains were collected.
The mice were placed on an accelerating Rotarod (Columbus Instruments, Columbus, OH, USA) equipped with individual timers for each mouse. […] The mice were trained for 3 consecutive days before the final measurement.

[2] = system: MPTP-treated C57BL/6 mice; experiment: Grip strength test in MPTP-treated mice; type: in vivo, mouse; settings: MPTP 25 mg/kg i.p. day 1–5; treatment day 1–13; vs MPTP vehicle control
Method: as §1, §2
The maximal muscle/grip strength of forelimbs was measured using a strength meter.

[3] = cited from earlier work
[4] = In vivo metabolism, metabolite profiling in rat brain and plasma (LC-MS/MS); settings: male, Sprague Dawley, intraperitoneal, 50 mg/kg; relative abundance brain vs plasma, rat
Method: In vivo metabolism: We performed a metabolism study (Figure 2) in male Sprague Dawley rats (6–8 weeks old) after a single i.p. injection of 50 mg/kg Pegasus. Plasma and brain samples were serially collected and assessed for the presence of possible phase-I and phase-II metabolites. […] The relative abundance of Pegasus and its metabolites in the brain and plasma was determined at the ionization parameters of the parent.
Metabolite profiling was performed in rat brain and plasma samples to detect phase-I and phase-II metabolites in male Sprague Dawley rats (6–8 weeks old, n = 6) injected (i.p.) with 50 mg/kg Pegasus. The formulation vehicle of Pegasus was 5% DMSO + 35% polyethylene glycol (PEG) 400 + 60% normal saline, and this formulation was used to measure the plasma and brain concentrations of Pegasus and all other metabolites. All samples obtained after Pegasus dosing in rats by the i.p. route of administration were used for metabolite profiling and compared to normal saline. Blood (n = 16 samples) was collected via retro-orbital plexus puncture 0.25, 1, 4, 6, 8, and 24 h pre-dose, and brain sampling was 1, 4, and 24 h post-dose (n = 6 per group). The brain samples were cleaned and perfused, then washed with PBS. The brains (approximately 1.5 g) were transferred to a 50 mL centrifuge tube and 36 mL of ice-cold PBS was added. The mixture was homogenized for about 1–2 min to obtain a uniform suspension. The precipitate was allowed to settle for 30 min at 4 °C, and 15 mL of the middle layer was collected. The plasma and brain samples were processed by the protein precipitation method. In total, 175 μL of acetonitrile was added to 25 μL of plasma samples. The samples were mixed, followed by centrifugation at 4000 rpm for 20 min. The supernatant from the samples was subjected to LC-MS/MS analysis.
The samples were analyzed by liquid chromatography tandem mass spectrometry (HPLC: LC series, Shimadzu, Chiyoda-ku, Tokyo, Japan; mass spectrometer: API4000 Triple Quad mass spectrometer, Applied Biosystems, Carlsbad, CA, USA). The samples (n = 6) were processed using protein precipitation and 1 mM stock solution, prepared in DMSO, spiked into acetonitrile to a final concentration of 4 µM, and processed using liquid chromatography tandem mass spectrometry, employing a linear gradient method using MH+/MH−(Q1) and product ion (MS/MS) scans. The evaluation of the Pegasus metabolites included demethylation, de-hydroxylation, amide cleavage, oxidation, de-hydrogenation, glucuronidation, sulfation, glutathione conjugation, and several other possibilities. The relative abundance of Pegasus and its metabolites in the brain and plasma was determined at the ionization parameters of the parent.

MPTP models of PD = system: MPTP models of PD; set-up: method as in PMID 11724929; settings: cited from earlier work

SMILES: N[C@@H](Cc1ccc(O)c(O)c1)C(=O)O [L-Dopa]
- Latency to fall (Rotarod) [1]: significantly increased latency to fall
- Forelimb grip strength [2]: significantly reversed back to normal levels
- Half-life T1/2 ([3]; in combination with DDCI): 60 to 90 min
- Levodopa brain entry ([3]; in combination with dopa-carboxylase enzyme inhibitor (DDCI)): up to 10%
- Half-life T1/2 ([3]; levodopa administered alone): 46.2 to 64.8 min
- Share of oral dose that reaches the brain ([3]; levodopa administered alone): 1%
- Share reaching the brain ([3]; with DDCI and selective COMT inhibitors): up to 40%

SMILES: NC(=O)CCC(=O)NCCc1cc(O)c(O)c(SCC(N)C(=O)O)c1 (stereo not drawn) [M11]
- Kp [4]: 1.31

SMILES: CN(C)c1ccc(O)c2c1C[C@H]1C[C@H]3[C@H](N(C)C)C(O)=C(C(N)=O)C(=O)[C@@]3(O)C(O)=C1C2=O [Minocycline]
- Striatal cell loss (MPTP models of PD): prevents striatal cell loss
